Tests used:
[1] = excess molar enthalpy (molar enthalpy of mixing); xn = mol fraction of the nth substance listed; conditions: 308.15 K, 101 kPa, Liquid, Calvet calorimetry
[2] = xn = mol fraction of the nth substance listed; conditions: 101 kPa, Liquid; for excess molar volume: 298.15 K, Direct dilatometry; for speed of sound: 308.15 K, Linear variable-path acoustic interferometer
[3] = 101.33 kPa, Liquid; for speed of sound: Linear variable-path acoustic interferometer; for mass density: Pycnometric method

Cc1ccccc1N [2-methylaniline] + C1CCCCC1
Conditions | excess molar enthalpy [kcal/mol] | excess molar volume [m3/mol] | speed of sound [m/s]
[1], x1 = 0.0527 | 0.0635 | – | –
[1], x1 = 0.1017 | 0.121 | – | –
[1], x1 = 0.1628 | 0.189 | – | –
[1], x1 = 0.2349 | 0.26 | – | –
[1], x1 = 0.2681 | 0.313 | – | –
[1], x1 = 0.3614 | 0.354 | – | –
[1], x1 = 0.4213 | 0.382 | – | –
[1], x1 = 0.4907 | 0.399 | – | –
[1], x1 = 0.5613 | 0.398 | – | –
[1], x1 = 0.6121 | 0.387 | – | –
[1], x1 = 0.6774 | 0.357 | – | –
[1], x1 = 0.7643 | 0.294 | – | –
[1], x1 = 0.8391 | 0.219 | – | –
[1], x1 = 0.931 | 0.102 | – | –
[2], x1 = 0.0663 | – | – | 1215
[2], x1 = 0.0768 | – | 2.41e-07 | –
[2], x1 = 0.1293 | – | – | 1221
[2], x1 = 0.1415 | – | 3.87e-07 | –
[2], x1 = 0.1758 | – | – | 1228
[2], x1 = 0.1925 | – | 4.7e-07 | –
[2], x1 = 0.2355 | – | – | 1239
[2], x1 = 0.2442 | – | 5.29e-07 | –
[2], x1 = 0.2901 | – | 5.62e-07 | –
[2], x1 = 0.2902 | – | – | 1252
[2], x1 = 0.3335 | – | – | 1264
[2], x1 = 0.3415 | – | 5.81e-07 | –
[2], x1 = 0.393 | – | – | 1282
[2], x1 = 0.3981 | – | 5.82e-07 | –
[2], x1 = 0.4506 | – | 5.68e-07 | –
[2], x1 = 0.4881 | – | – | 1315
[2], x1 = 0.5225 | – | 5.29e-07 | –
[2], x1 = 0.556 | – | – | 1342
[2], x1 = 0.6103 | – | 4.57e-07 | –
[2], x1 = 0.6453 | – | – | 1382
[2], x1 = 0.6875 | – | 3.79e-07 | –
[2], x1 = 0.7117 | – | – | 1415
[2], x1 = 0.7513 | – | 3.07e-07 | –
[2], x1 = 0.7986 | – | – | 1462
[2], x1 = 0.8224 | – | 2.22e-07 | –
[2], x1 = 0.8479 | – | – | 1493
[2], x1 = 0.9026 | – | – | 1528
[2], x1 = 0.9119 | – | 1.11e-07 | –

CCCCCC [hexane]
[3], 298.15 K
Conditions | mass density [kg/m3] | speed of sound [m/s]
– | 654.82 | 1079

C1CCCCC1 [cyclohexane]
[3], 298.15 K
Conditions | mass density [kg/m3] | speed of sound [m/s]
– | 773.94 | 1255

Cc1ccccc1N [2-methylaniline]
[3]
Conditions | mass density [kg/m3] | speed of sound [m/s]
298.15 K | 994.28 | –
308.15 K | – | 1603

Cc1ccccc1N [2-methylaniline] + CCCCCC
Conditions | excess molar enthalpy [kcal/mol] | excess molar volume [m3/mol] | speed of sound [m/s]
[1], x1 = 0.0678 | 0.0385 | – | –
[1], x1 = 0.1317 | 0.084 | – | –
[1], x1 = 0.1927 | 0.132 | – | –
[1], x1 = 0.2505 | 0.179 | – | –
[1], x1 = 0.3314 | 0.242 | – | –
[1], x1 = 0.4015 | 0.29 | – | –
[1], x1 = 0.4718 | 0.328 | – | –
[1], x1 = 0.5317 | 0.35 | – | –
[1], x1 = 0.5997 | 0.36 | – | –
[1], x1 = 0.6532 | 0.355 | – | –
[1], x1 = 0.7013 | 0.341 | – | –
[1], x1 = 0.7717 | 0.301 | – | –
[1], x1 = 0.8439 | 0.235 | – | –
[1], x1 = 0.9164 | 0.142 | – | –
[2], x1 = 0.0697 | – | – | 1056
[2], x1 = 0.0712 | – | -4.8e-08 | –
[2], x1 = 0.1172 | – | – | 1075
[2], x1 = 0.1767 | – | -1.25e-07 | –
[2], x1 = 0.1851 | – | – | 1105
[2], x1 = 0.2524 | – | -1.84e-07 | –
[2], x1 = 0.2657 | – | – | 1142
[2], x1 = 0.2933 | – | -2.15e-07 | –
[2], x1 = 0.3119 | – | – | 1165
[2], x1 = 0.3442 | – | -2.52e-07 | –
[2], x1 = 0.3707 | – | – | 1194
[2], x1 = 0.3801 | – | -2.77e-07 | –
[2], x1 = 0.4443 | – | -3.15e-07 | –
[2], x1 = 0.4478 | – | – | 1232
[2], x1 = 0.4903 | – | -3.38e-07 | –
[2], x1 = 0.5009 | – | – | 1259
[2], x1 = 0.5613 | – | -3.63e-07 | –
[2], x1 = 0.5787 | – | – | 1297
[2], x1 = 0.6363 | – | -3.71e-07 | –
[2], x1 = 0.6449 | – | – | 1329
[2], x1 = 0.6991 | – | -3.61e-07 | –
[2], x1 = 0.709 | – | – | 1359
[2], x1 = 0.7552 | – | -3.36e-07 | –
[2], x1 = 0.7673 | – | – | 1389
[2], x1 = 0.8345 | – | -2.71e-07 | –
[2], x1 = 0.8391 | – | – | 1433
[2], x1 = 0.9123 | – | – | 1501
[2], x1 = 0.9265 | – | -1.46e-07 | –

CCCCCCC [heptane]
[3]
Conditions | mass density [kg/m3] | speed of sound [m/s]
298.15 K | 679.49 | –
308.15 K | – | 1088

Cc1ccccc1N [2-methylaniline] + CCCCCCC
Conditions | excess molar enthalpy [kcal/mol] | excess molar volume [m3/mol] | speed of sound [m/s]
[1], x1 = 0.0734 | 0.0479 | – | –
[1], x1 = 0.1457 | 0.0872 | – | –
[1], x1 = 0.1968 | 0.112 | – | –
[1], x1 = 0.2678 | 0.144 | – | –
[1], x1 = 0.3109 | 0.162 | – | –
[1], x1 = 0.3874 | 0.193 | – | –
[1], x1 = 0.4467 | 0.215 | – | –
[1], x1 = 0.5019 | 0.234 | – | –
[1], x1 = 0.5876 | 0.256 | – | –
[1], x1 = 0.6513 | 0.264 | – | –
[1], x1 = 0.7016 | 0.263 | – | –
[1], x1 = 0.7767 | 0.244 | – | –
[1], x1 = 0.8312 | 0.215 | – | –
[1], x1 = 0.9267 | 0.12 | – | –
[2], x1 = 0.0707 | – | – | 1102
[2], x1 = 0.0814 | – | -4.8e-08 | –
[2], x1 = 0.1227 | – | – | 1115
[2], x1 = 0.1663 | – | -1.02e-07 | –
[2], x1 = 0.1758 | – | – | 1129
[2], x1 = 0.2224 | – | -1.37e-07 | –
[2], x1 = 0.2378 | – | – | 1148
[2], x1 = 0.2812 | – | -1.71e-07 | –
[2], x1 = 0.3079 | – | – | 1172
[2], x1 = 0.3388 | – | -1.99e-07 | –
[2], x1 = 0.3508 | – | – | 1187
[2], x1 = 0.3991 | – | -2.23e-07 | –
[2], x1 = 0.4047 | – | – | 1208
[2], x1 = 0.4554 | – | -2.38e-07 | –
[2], x1 = 0.4679 | – | – | 1233
[2], x1 = 0.5218 | – | -2.47e-07 | –
[2], x1 = 0.547 | – | – | 1266
[2], x1 = 0.5804 | – | -2.45e-07 | –
[2], x1 = 0.6131 | – | – | 1296
[2], x1 = 0.6446 | – | -2.33e-07 | –
[2], x1 = 0.6884 | – | – | 1334
[2], x1 = 0.7112 | – | -2.1e-07 | –
[2], x1 = 0.7597 | – | – | 1373
[2], x1 = 0.7819 | – | -1.73e-07 | –
[2], x1 = 0.8208 | – | – | 1413
[2], x1 = 0.8503 | – | -1.27e-07 | –
[2], x1 = 0.9224 | – | – | 1501
[2], x1 = 0.9383 | – | -6.7e-08 | –

Reference: the NIST ThermoML archive (doi:10.1016/j.tca.2008.06.004)
